The record followed here is PubChem BioAssay AID248 (DTP/NCI, 2004).

This assay has as its system L1210 leukemia ip in BDF1 mice, survival T/C. As to the kind of experiment: NCI In Vivo Anticancer Drug Screen. Data for tumor model L1210 Leukemia (intraperitoneal) in B6D2F1 (BDF1) mice. Particulars: endpoint: mean survival time, higher = longer survival. A digest of the protocol:
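Each compound was tested against a transplantable tumor grown in mice. The endpoint was survival, with treated animals benchmarked against vehicle controls as a simple ratio.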

The mark [1] stands for this setting: dose: 100.0 mg/kg/injection, schedule: Q01DX001 (ip), vehicle: saline.
Where [2] appears, read: dose: 200.0 mg/kg/injection, schedule: Q01DX001 (ip), vehicle: saline.
Setting [3] is: dose: 400.0 mg/kg/injection, schedule: Q01DX001 (ip), vehicle: saline.
Where [4] appears, read: dose: 100.0 mg/kg/injection, schedule: Q04DX003 (ip), vehicle: Klucel (hydroxypropylcellulose) (HPC).
[5] abbreviates: dose: 200.0 mg/kg/injection, schedule: Q04DX003 (ip), vehicle: Klucel (hydroxypropylcellulose) (HPC).
The mark [6] stands for this setting: dose: 400.0 mg/kg/injection, schedule: Q04DX003 (ip), vehicle: Klucel (hydroxypropylcellulose) (HPC).
The mark [7] stands for this setting: dose: 400.0 mg/kg/injection, schedule: Q04DX002 (ip), vehicle: saline with Tween-80.
Where [8] appears, read: dose: 100.0 mg/kg/injection, schedule: Q04DX003 (ip), vehicle: saline with Tween-80.
[9] abbreviates: dose: 200.0 mg/kg/injection, schedule: Q04DX003 (ip), vehicle: saline with Tween-80.
Where [10] appears, read: dose: 400.0 mg/kg/injection, schedule: Q04DX003 (ip), vehicle: saline with Tween-80.
The mark [11] stands for this setting: dose: 100.0 mg/kg/injection, schedule: Q01DX001 (ip), vehicle: saline with Tween-80.
[12] abbreviates: dose: 200.0 mg/kg/injection, schedule: Q01DX001 (ip), vehicle: saline with Tween-80.
The mark [13] stands for this setting: dose: 100.0 mg/kg/injection, schedule: Q04DX002 (ip), vehicle: Klucel (hydroxypropylcellulose) (HPC).
[14] abbreviates: dose: 100.0 mg/kg/injection, schedule: Q01DX009 (ip), vehicle: Klucel (hydroxypropylcellulose) (HPC).
Where [15] appears, read: dose: 200.0 mg/kg/injection, schedule: Q01DX009 (ip), vehicle: Klucel (hydroxypropylcellulose) (HPC).
Setting [16] is: dose: 400.0 mg/kg/injection, schedule: Q01DX009 (ip), vehicle: Klucel (hydroxypropylcellulose) (HPC).
Setting [17] is: dose: 200.0 mg/kg/injection, schedule: Q04DX002 (ip), vehicle: Klucel (hydroxypropylcellulose) (HPC).

Each structure is given as a SMILES string. Inconclusive results and toxic doses are left out.

As for `CCSCC1OC(n2cnc3c(N)ncnc32)CC1O` (stereo not drawn), the T/C is, setting by setting: under setting [1], 98 % of control; under setting [2], 104 % of control; under setting [3], 92 % of control.

Regarding `CC1(C)Cc2ccccc2C(c2ccccn2)=N1`, the T/C reads like this: under setting [4], 96 % of control; under setting [5], 112 % of control; under setting [6], 112 % of control.

For the compound `CCCCCC[CH2][Ge][CH2]CCCCCC`, the T/C (dose: 100.0 mg/kg/injection, schedule: Q04DX002 (ip), vehicle: saline with Tween-80) was 95 % of control; the T/C (dose: 200.0 mg/kg/injection, schedule: Q04DX002 (ip), vehicle: saline with Tween-80) was 92 % of control; the T/C under setting [7] is 103 % of control.

For the compound `Cc1ccc(-n2c(O)c(N=Nc3ccccc3C)c(=O)n(-c3ccc(I)cc3)c2=S)cc1`, the T/C (dose: 37.5 mg/kg/injection, schedule: Q01DX001 (ip), vehicle: Klucel (hydroxypropylcellulose) (HPC)) is 101 % of control; the T/C (dose: 75.0 mg/kg/injection, schedule: Q01DX001 (ip), vehicle: Klucel (hydroxypropylcellulose) (HPC)) was 108 % of control; the T/C (dose: 150.0 mg/kg/injection, schedule: Q01DX001 (ip), vehicle: Klucel (hydroxypropylcellulose) (HPC)) is 92 % of control.

In the case of `CC(=O)C(c1ccccc1)(c1ccccc1)c1ccccc1`, the T/C under setting [8] was 96 % of control, the T/C under setting [9] is 93 % of control and the T/C under setting [10] was 91 % of control.

Take `CNc1ccccc1C(=O)N/N=C/c1c(O)ccc2ccccc12`: the T/C runs as follows: (dose: 100.0 mg/kg/injection, schedule: Q04DX002 (ip), vehicle: saline) 99 % of control; (dose: 200.0 mg/kg/injection, schedule: Q04DX002 (ip), vehicle: saline) 96 % of control; (dose: 400.0 mg/kg/injection, schedule: Q04DX002 (ip), vehicle: saline) 96 % of control.

With `CCCCCCCCCCCCCCCCCCOc1cccc(C(F)(F)F)c1`, the T/C is 89 % of control under setting [11] and 91 % of control under setting [12].

Regarding `NNC(=O)CNc1cccc(Cl)c1F`, the T/C (dose: 25.0 mg/kg/injection, schedule: Q04DX002 (ip), vehicle: Klucel (hydroxypropylcellulose) (HPC)) is 92 % of control; the T/C (dose: 50.0 mg/kg/injection, schedule: Q04DX002 (ip), vehicle: Klucel (hydroxypropylcellulose) (HPC)) was 92 % of control; the T/C under setting [13] was 122 % of control.

With `O=C(NNC(=O)c1ccc(Cl)cc1)Nc1ccc(F)c(Cl)c1`, the T/C under setting [14] is 97 % of control, the T/C under setting [15] was 104 % of control and the T/C under setting [16] is 100 % of control.

For `Cc1cccc(C)c1N=C=O`, the T/C by setting is: (dose: 100.0 mg/kg/injection, schedule: Q01DX009 (ip), vehicle: other) 93 % of control; under setting [8], 105 % of control; (dose: 200.0 mg/kg/injection, schedule: Q01DX009 (ip), vehicle: other) 106 % of control; under setting [9], 100 % of control; under setting [10], 109 % of control.

Consider `CNC(=O)Nc1ccccc1C(=O)OC`, for which the T/C runs as follows: under setting [14], 100 % of control; under setting [4], 97 % of control; under setting [15], 98 % of control; under setting [5], 97 % of control; under setting [16], 98 % of control; under setting [6], 101 % of control.

For the compound `Nc1ccc(NC(=S)Nc2ccccc2)cc1`, the T/C runs as follows: under setting [14], 104 % of control; under setting [4], 93 % of control; under setting [15], 101 % of control; under setting [5], 95 % of control; under setting [16], 97 % of control; under setting [6], 92 % of control.

As to `O=C(O)COc1ccc(Cl)cc1I`, the T/C is 120 % of control under setting [13] and 97 % of control under setting [17].

Turning to `O=c1[nH]c2nccnc2[nH]1`, the T/C is 91 % of control (dose: 25.0 mg/kg/injection, schedule: Q01DX009 (ip), vehicle: water); 107 % of control (dose: 50.0 mg/kg/injection, schedule: Q01DX009 (ip), vehicle: water); 96 % of control (dose: 200.0 mg/kg/injection, schedule: Q01DX009 (ip), vehicle: water).

As for `CC(C)(CO)C(O)C(=O)NCCC(=O)c1ccccc1` (stereo not drawn), the T/C under setting [1] was 103 % of control, the T/C under setting [2] was 92 % of control and the T/C under setting [3] is 103 % of control.

As for `Cc1nnc(NS(=O)(=O)c2ccc(N=Nc3cc(N=Nc4ccccc4)c(N)nc3N)cc2)s1`, the T/C (dose: 100.0 mg/kg/injection, schedule: Q01DX001 (ip), vehicle: carboxymethylcellulose (CMC)) is 87 % of control; the T/C (dose: 200.0 mg/kg/injection, schedule: Q01DX001 (ip), vehicle: carboxymethylcellulose (CMC)) is 89 % of control; the T/C (dose: 400.0 mg/kg/injection, schedule: Q01DX001 (ip), vehicle: carboxymethylcellulose (CMC)) was 97 % of control.

For `O=C(C(Cl)Cl)N(O)c1ccccc1OCc1ccccc1`, the T/C under setting [11] is 98 % of control; the T/C under setting [12] is 112 % of control; the T/C (dose: 400.0 mg/kg/injection, schedule: Q01DX001 (ip), vehicle: saline with Tween-80) was 98 % of control.

Regarding `O=c1ssc(Nc2ccccc2)c1Cl`, the T/C is 93 % of control under setting [13]; 100 % of control under setting [17]; 104 % of control (dose: 400.0 mg/kg/injection, schedule: Q04DX002 (ip), vehicle: Klucel (hydroxypropylcellulose) (HPC)).

As to `c1ccc(N(c2ccccc2)C(c2ccccc2)(c2ccccc2)c2ccccc2)cc1`, the T/C is, setting by setting: (dose: 25.6 mg/kg/injection, schedule: Q04DX002 (ip), vehicle: saline with Tween-80) 93 % of control; (dose: 64.0 mg/kg/injection, schedule: Q04DX002 (ip), vehicle: saline with Tween-80) 104 % of control; under setting [8], 89 % of control; (dose: 160.0 mg/kg/injection, schedule: Q04DX002 (ip), vehicle: saline with Tween-80) 95 % of control; under setting [9], 92 % of control; under setting [7], 95 % of control. Besides, the T/C under setting [10] is 685 % of control.

In the case of `COc1cccc(CC2=NCCc3cc(OC)c(OC)cc32)c1`, the T/C is 103 % of control (dose: 25.0 mg/kg/injection, schedule: Q01DX009 (ip), vehicle: saline); 101 % of control (dose: 50.0 mg/kg/injection, schedule: Q01DX009 (ip), vehicle: saline); 97 % of control (dose: 100.0 mg/kg/injection, schedule: Q01DX009 (ip), vehicle: saline); 98 % of control (dose: 100.0 mg/kg/injection, schedule: Q04DX003 (ip), vehicle: saline).

With `COc1ccc2c(c1)CCC1(C)C2=CC(=O)/C1=C\[O-].COc1ccc2c(c1)CCC1(C)C2=CC(=O)/C1=C\[O-].[Cu+2]` (stereo not drawn), the T/C reads like this: (dose: 25.0 mg/kg/injection, schedule: Q01DX009 (ip), vehicle: saline with Tween-80) 108 % of control; (dose: 50.0 mg/kg/injection, schedule: Q01DX009 (ip), vehicle: saline with Tween-80) 113 % of control; (dose: 100.0 mg/kg/injection, schedule: Q01DX009 (ip), vehicle: saline with Tween-80) 97 % of control; (dose: 100.0 mg/kg/injection, schedule: Q04DX003 (ip), vehicle: saline sonified) 91 % of control.

For the compound `CS(=O)(=O)Nc1ccc(NS(C)(=O)=O)c(SCc2ccccc2)c1`, the T/C is, setting by setting: (dose: 100.0 mg/kg/injection, schedule: Q01DX001 (ip), vehicle: Klucel (hydroxypropylcellulose) (HPC)) 95 % of control; under setting [4], 96 % of control; (dose: 200.0 mg/kg/injection, schedule: Q01DX001 (ip), vehicle: Klucel (hydroxypropylcellulose) (HPC)) 98 % of control; under setting [5], 89 % of control; (dose: 400.0 mg/kg/injection, schedule: Q01DX001 (ip), vehicle: Klucel (hydroxypropylcellulose) (HPC)) 95 % of control; under setting [6], 102 % of control.

With `CC1CN(Cc2ccc([N+](=O)[O-])cc2)CC(C)N1N` (stereo not drawn), the T/C (dose: 50.0 mg/kg/injection, schedule: Q01DX005 (ip), vehicle: saline with Tween-80) was 98 % of control and the T/C (dose: 100.0 mg/kg/injection, schedule: Q01DX005 (ip), vehicle: saline with Tween-80) was 103 % of control.
